{
  "source": "ChEMBL document CHEMBL1128706",
  "about": "“Nonpeptidic potent HIV-1 protease inhibitors: (4-hydroxy-6-phenyl-2-oxo-2H- pyran-3-yl)thiomethanes that span P1-P2' subsites in a unique mode of active site binding” (J Med Chem, 1995)",
  "key": {"[1]": {"target": "Human immunodeficiency virus type 1 protease (Human immunodeficiency virus 1, UniProt Q72874)", "experiment": "Ability to inhibit purified recombinant HIV-1 protease."}, "Cathepsin D": {"target": "Cathepsin D (Homo sapiens, UniProt P07339)", "sequence (P07339 65-162 limits assumed)": "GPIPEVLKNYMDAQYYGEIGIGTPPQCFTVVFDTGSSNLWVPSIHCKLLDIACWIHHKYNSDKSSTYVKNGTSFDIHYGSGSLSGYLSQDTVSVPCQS", "sequence (P07339 169-412 limits assumed)": "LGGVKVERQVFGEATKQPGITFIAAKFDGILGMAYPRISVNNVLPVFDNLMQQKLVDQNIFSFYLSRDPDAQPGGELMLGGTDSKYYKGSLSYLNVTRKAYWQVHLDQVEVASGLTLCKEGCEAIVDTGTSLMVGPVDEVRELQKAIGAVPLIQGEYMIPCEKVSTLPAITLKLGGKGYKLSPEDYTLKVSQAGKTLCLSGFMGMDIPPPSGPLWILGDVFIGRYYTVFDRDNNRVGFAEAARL", "experiment": "Ability to inhibit the human Native cathepsin D aspartic protease enzyme"}, "Cathepsin E": {"target": "T1, Cathepsin E (Homo sapiens, UniProt P14091)", "T1 sequence (P14091 whole entry)": "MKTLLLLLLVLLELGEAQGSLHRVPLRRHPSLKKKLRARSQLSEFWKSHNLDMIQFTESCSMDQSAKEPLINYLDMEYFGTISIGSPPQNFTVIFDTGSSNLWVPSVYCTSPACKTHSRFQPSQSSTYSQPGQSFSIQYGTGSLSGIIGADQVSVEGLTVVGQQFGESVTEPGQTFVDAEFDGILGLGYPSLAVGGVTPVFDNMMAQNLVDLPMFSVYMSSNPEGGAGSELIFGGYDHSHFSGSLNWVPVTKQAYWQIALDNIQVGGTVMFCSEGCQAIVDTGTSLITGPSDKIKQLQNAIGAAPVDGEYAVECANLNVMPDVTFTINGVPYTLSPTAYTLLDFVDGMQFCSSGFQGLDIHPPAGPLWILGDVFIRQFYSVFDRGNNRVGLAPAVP", "experiment": "Ability to inhibit the human Native cathepsin E aspartic protease enzyme"}, "[2]": {"experiment": "In vitro toxic concentration against HIV-1 IIIb H9-infected cells", "format": "cell-based", "details": "human, HIV-1 IIIb-infected H9 cells; read-out: TC50 (the source's name)"}, "Renin": {"target": "T2, Renin (Homo sapiens, UniProt P00797)", "T2 sequence (P00797 whole entry)": "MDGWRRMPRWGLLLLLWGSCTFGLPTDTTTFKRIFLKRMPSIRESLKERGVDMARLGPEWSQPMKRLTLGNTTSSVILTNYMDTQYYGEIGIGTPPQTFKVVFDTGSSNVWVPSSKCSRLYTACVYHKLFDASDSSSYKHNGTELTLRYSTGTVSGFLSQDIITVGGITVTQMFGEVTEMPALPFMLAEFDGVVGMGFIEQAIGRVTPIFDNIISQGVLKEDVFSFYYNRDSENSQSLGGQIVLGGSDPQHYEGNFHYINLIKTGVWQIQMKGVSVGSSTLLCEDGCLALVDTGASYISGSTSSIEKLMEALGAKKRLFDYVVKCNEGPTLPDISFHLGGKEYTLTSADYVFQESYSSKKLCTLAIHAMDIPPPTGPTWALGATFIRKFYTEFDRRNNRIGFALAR", "experiment": "Ability to inhibit the human recombinant renin aspartic protease enzyme"}},
  "data": [
    {"molecule": "O=c1cc(-c2ccccc2)oc(O)c1C(CC1CCCC1)SC1CCCCC1", "note": "(stereo unspecified)", "values": [
      {"measurement": "IC50", "setting": "[1]", "value": 541, "unit": "nM"}
    ]},
    {"molecule": "O=c1cc(-c2ccccc2)oc(O)c1C(CC1CC1)SC1CCCC1", "note": "(stereo unspecified)", "values": [
      {"measurement": "Ki", "setting": "[1]", "value": 0.069, "unit": "nM"}
    ]},
    {"molecule": "CC(C)CC(SC1CCCC1)c1c(O)cc(-c2ccccc2)oc1=O", "note": "(stereo unspecified)", "values": [
      {"measurement": "IC50", "setting": "Cathepsin D", "value": "> 40000", "unit": "nM"},
      {"measurement": "IC50", "setting": "Cathepsin E", "value": "> 40000", "unit": "nM"},
      {"measurement": "CC50", "setting": "[2]", "value": 28000, "unit": "nM"},
      {"measurement": "IC50", "setting": "[1]", "value": 58, "unit": "nM"},
      {"measurement": "IC50", "setting": "Renin", "value": "> 10000", "unit": "nM"}
    ]},
    {"molecule": "CC(C)CC(Sc1ccccc1)c1c(O)cc(-c2ccccc2)oc1=O", "note": "(stereo unspecified)", "values": [
      {"measurement": "IC50", "setting": "[1]", "value": 410, "unit": "nM"}
    ]},
    {"molecule": "CC(C)(C)CC(SC1CCCCC1)c1c(O)cc(-c2ccccc2)oc1=O", "note": "(stereo unspecified)", "values": [
      {"measurement": "IC50", "setting": "[1]", "value": 300, "unit": "nM"}
    ]},
    {"molecule": "O=c1cc(-c2ccccc2)oc(O)c1C(CC1CC1)SCc1ccccc1", "note": "(stereo unspecified)", "values": [
      {"measurement": "IC50", "setting": "Cathepsin D", "value": "> 40000", "unit": "nM"},
      {"measurement": "IC50", "setting": "Cathepsin E", "value": "> 40000", "unit": "nM"},
      {"measurement": "CC50", "setting": "[2]", "value": 68000, "unit": "nM"},
      {"measurement": "IC50", "setting": "[1]", "value": 84, "unit": "nM"},
      {"measurement": "IC50", "setting": "Renin", "value": "> 10000", "unit": "nM"}
    ]},
    {"molecule": "CC(C)CCC(Sc1ccccc1)c1c(O)cc(-c2ccccc2)oc1=O", "note": "(stereo unspecified)", "values": [
      {"measurement": "IC50", "setting": "[1]", "value": 390, "unit": "nM"}
    ]},
    {"molecule": "CC(C)CC(SCc1ccccc1)c1c(O)cc(-c2ccccc2)oc1=O", "note": "(stereo unspecified)", "values": [
      {"measurement": "CC50", "setting": "[2]", "value": 67000, "unit": "nM"},
      {"measurement": "IC50", "setting": "[1]", "value": 260, "unit": "nM"}
    ]},
    {"molecule": "O=c1cc(-c2ccccc2)oc(O)c1C(SCc1ccccc1)c1ccccc1", "note": "(stereo unspecified)", "values": [
      {"measurement": "CC50", "setting": "[2]", "value": 61000, "unit": "nM"},
      {"measurement": "IC50", "setting": "[1]", "value": 480, "unit": "nM"}
    ]},
    {"molecule": "O=c1cc(-c2ccccc2)oc(O)c1C(Sc1ccc2ccccc2c1)c1ccccc1", "note": "(stereo unspecified)", "values": [
      {"measurement": "IC50", "setting": "[1]", "value": 2450, "unit": "nM"}
    ]},
    {"molecule": "O=c1cc(-c2ccccc2)oc(O)c1C(Sc1ccccc1)c1ccccc1", "note": "(stereo unspecified)", "values": [
      {"measurement": "IC50", "setting": "[1]", "value": 780, "unit": "nM"}
    ]},
    {"molecule": "O=c1cc(-c2ccccc2)oc(O)c1C(Sc1ccccc1)C1CCCCC1", "note": "(stereo unspecified)", "values": [
      {"measurement": "IC50", "setting": "[1]", "value": 2440, "unit": "nM"}
    ]},
    {"molecule": "CC(C)CC(SCC1CCCCC1)c1c(O)cc(-c2ccccc2)oc1=O", "note": "(stereo unspecified)", "values": [
      {"measurement": "IC50", "setting": "[1]", "value": 848, "unit": "nM"}
    ]},
    {"molecule": "O=c1cc(-c2ccccc2)oc(O)c1C(CC1CC1)SC1CCCCC1", "note": "(stereo unspecified)", "values": [
      {"measurement": "CC50", "setting": "[2]", "value": 67000, "unit": "nM"},
      {"measurement": "IC50", "setting": "[1]", "value": 147, "unit": "nM"}
    ]},
    {"molecule": "O=c1cc(-c2ccccc2)oc(O)c1C(Sc1ccccc1)c1ccc2ccccc2c1", "note": "(stereo unspecified)", "values": [
      {"measurement": "IC50", "setting": "[1]", "value": 7820, "unit": "nM"}
    ]},
    {"molecule": "O=c1cc(-c2ccccc2)oc(O)c1C(SC1CCCC1)C1CCCC1", "note": "(stereo unspecified)", "values": [
      {"measurement": "CC50", "setting": "[2]", "value": 70000, "unit": "nM"},
      {"measurement": "IC50", "setting": "[1]", "value": 225, "unit": "nM"}
    ]},
    {"molecule": "CC(C)CC(SC1CCCCC1)c1c(O)cc(-c2ccccc2)oc1=O", "note": "(stereo unspecified)", "values": [
      {"measurement": "IC50", "setting": "[1]", "value": 320, "unit": "nM"}
    ]},
    {"molecule": "O=c1cc(-c2ccccc2)oc(O)c1C(SC1CCCCC1)c1ccccc1", "note": "(stereo unspecified)", "values": [
      {"measurement": "IC50", "setting": "[1]", "value": 480, "unit": "nM"}
    ]},
    {"molecule": "O=c1cc(-c2ccccc2)oc(O)c1CSc1ccccc1", "values": [
      {"measurement": "IC50", "setting": "[1]", "value": 84300, "unit": "nM"}
    ]}
  ]
}
